What was measured:
ClbP [1] = target: T1, ClbP (Escherichia coli, UniProt Q0P7K6); assay: ClbP whole cell activity (inhibition) assay, fluorogenic substrate; type: cell-based, E. coli
Procedure: Whole Cell Activity Assay
(§1) 1) E. coli ClbP+ were taken from a frozen stock and streaked onto BHI plates. They were grown aerobically at 37° C. overnight in the incubator.
(§2) 1) A single colony was selected from the plate and inoculated into 30 mL LB in a 50 mL conical vial eight times (240 mL total). The bacteria were grown aerobically overnight (16-20 h) at 37° C. on a nutator with rocking.
1) The saturated overnight culture was centrifuged to create a firm pellet (3,200 g, 10 min, 4° C.). In a biosafety cabinet, the supernatant was removed and then the pellet was resuspended in 30 mL sterile PBS.
2) The bacteria were centrifuged again (3,200 g, 10 min, 4° C.). The supernatant was removed, and the pellet was resuspended in sterile PBS buffer (6 mL) in each of the 8 tubes. This fivefold concentrated bacterial solution was the working solution.
3) The bacterial working solution (192 μL) was mixed with inhibitor (6 μL, final concentration was 300, 100, 33.3, 11.1, 3.7, 1.2, 0.4, or 0 μM). Fluorogenic substrate (2 μL, final concentration 5 μM) was immediately added across the plate to initiate the reaction. As a control, each plate contained Compound No. III in this dose response curve. The bacterial concentration was fivefold concentrated compared to the original saturated overnight culture. Carryover from DMSO was 4% (v/v). All compounds were tested in singlicate.
(§3) 4) The plate was loaded into a spectrophotometer preheated to 37° C. The fluorescence was recorded every 2 min for 46 min. The excitation wavelength was 360 nm (20 nm bandwidth), the emission wavelength was 460 nm (20 nm bandwidth), the optics position was bottom, the gain was 65, the light source was a tungsten bulb, and the read speed was normal.
(§4) 5) The linear portion of the fluorescence increase was 10-30 min. The rate of fluorescence increase (A.U./min) for each well in an inhibitor series was normalized to the 0 μM inhibitor condition. The normalized activity as a function of inhibitor concentration was then fit to a three parameter IC50 curve in Graphpad Prism.
(§5) “A” indicates an IC50 value less than 100 μM, “B” indicates an IC50 between 100 and 300 μM, “C” indicates an IC50 above 300 μM.

ClbP [2] = target: T1, ClbP; assay: ClbP cell lysate activity (inhibition) assay, fluorogenic substrate; type: biochemical; details: ClbP Lysate Inhibition Assay: IC50, E. coli ClbP+ lysozyme-EDTA lysates, 5 μM fluorogenic substrate, inhibitor 0-300 μM, 37° C., singlicate
Procedure: Cell Lysate Activity Assay
as §1, §2
1) The saturated overnight culture was centrifuged to create a firm pellet (3,200 g, 10 min, 4° C.). The supernatant was removed and then the pellet was resuspended in 30 mL sterile PBS.
2) The bacteria were centrifuged again (3,200 g, 10 min, 4° C.). The supernatant was removed, and the pellet was resuspended in sterile PBS buffer (3 mL) in each 8 tubes to make a tenfold concentrated bacterial solution.
3) A lysozyme-EDTA (LE) solution was made in ddH2O (0.05 mg/mL lysozyme, 0.25 M EDTA).
4) For each of the eight tubes, LE solution (3 mL) was mixed with concentrated bacterial solution (3 mL). This mixture was incubated at 37° C. for 30 min to generate the lysates.
5) The lysates (192 μL) were mixed with inhibitor (6 μL, final concentration was 300, 100, 33.3, 11.1, 3.7, 1.2, 0.4, or 0 μM). Fluorogenic substrate (2 μL, final concentration 5 μM) was immediately added across the plate to initiate the reaction. As a control, each plate contained Compound No. III in this dose response curve. The final concentration of bacterial lysates was fivefold concentrated compared to the original saturated overnight culture. Carryover from DMSO was 4% (v/v). All compounds were tested in singlicate.
as §3, with “6)” for “4)”
as §4, with “7)” for “5)”, “0-20” for “10-30”
as §5

Full-length WT ClbP = Full-length WT ClbP (Escherichia coli, UniProt Q0P7K6); assay: ClbP molecular (purified protein) enzymatic inhibition assay, fluorogenic substrate; type: biochemical, E. coli
Procedure: ClbP Molecular (Purified Protein) Assay
1) Full-length WT ClbP was thawed on ice. A diluted enzyme solution (2 nM) was made by mixing 3.57 μL of enzyme with 20 mL of reaction buffer (50 mM Tris pH 8.0, 200 mM NaCl, 0.02% (w/v) n-dodecyl-b-D-maltoside (DDM)).
2) In a 96 well plate, the diluted protein solution (73.5 μL) was mixed with inhibitor (1.5 μL, of varying concentrations, see below) and preincubated for 15 min at room temperature. Then, reaction buffer (75 μL) containing 10 μM fluorogenic substrate was added to initiate the reaction. After addition of substrate, the final concentrations were 1 nM full-length WT ClbP, 5 μM fluorogenic substrate in 50 mM Tris pH 8.0, 200 mM NaCl, 0.02% (w/v) DDM, with either 0, 0.14, 0.41, 1.2, 3.7, 11, 33, or 100 μM inhibitor. For all conditions, the DMSO carryover was 2% (v/v) at the preincubation stage and 1% in the reaction stage. Compound No. III was always present as a control in each plate, and all compounds were tested in singlicate. In previous assays, the Km of the fluorogenic substrate was determined to be approximately 5 μM.
3) Immediately after addition of substrate to enzyme, the plate was transferred into a spectrophotometer held at room temperature. The fluorescence was recorded every 1.5 min for 15 min. The excitation wavelength was 360 nm (20 nm bandwidth), the emission wavelength was 440 nm (20 nm bandwidth), the optics position was bottom, the gain was extended, the light source was a xenon flash lamp, and the read speed was normal.
as §4, with “4)” for “5)”, “is at least from 0-6 min, so this time regime is used.” for “was 10-30 min.”
as §5

Compound	IC50 (ClbP [1]) [µM]	IC50 (ClbP [2]) [µM]	IC50 (Full-length WT ClbP) [µM]
CCCCCCCCCC(=O)N[C@H](CC(N)=O)C(=O)NCCc1ccccc1 [Compound CCLXVI]	< 100	< 100	< 100
CC(=O)N[C@H](CC(N)=O)C(=O)NCCc1ccccc1 [Compound CCLXV]	> 300	> 300	100 to 300
CCCCCCCC(=O)N[C@@H](/C=C/C(=O)OCC)CC(N)=O [Compound CCLXXIII]	> 300	> 300	100 to 300
CCCCCCCC(=O)N[C@H](CC(N)=O)C(=O)NCCc1ccc(F)cc1 [Compound CCLXXIV]	< 100	< 100	< 100
NC(=O)C[C@@H](NC(=O)CC1CCCCC1)C(=O)NCCc1ccccc1 [Compound CCLXXI]	100 to 300	> 300	< 100
CCCCCCCC(=O)N[C@H](CC(N)=O)C(=O)N(C)CCc1ccc(O)cc1 [Compound CCLXXVII]	< 100	< 100	< 100
CCCCCCCC(=O)N[C@H](CC(N)=O)C(=O)N(CCc1ccc(O)cc1)C(C)C [Compound CCLXXVI]	> 300	< 100	< 100
CCCCCC(=O)N[C@H](CC(N)=O)C(=O)NCCc1ccc(C(F)(F)F)cc1 [Compound CCLXXV]	> 300	> 300	< 100
CCCCCCCC(=O)N[C@H](CC(N)=O)C(=O)C(=O)NCc1ccccc1 [Compound CCLXXXIII]	< 100	< 100	< 100
O=C(C[C@@H](NC(=O)CCC1CCCCC1)C(=O)NCCc1ccc(O)c(O)c1)NO [Compound CCLXXXIV]	100 to 300	100 to 300	< 100
CCCCCCCC(=O)N[C@H]1CC(=O)NC1(O)C(=O)NCc1ccccc1 (stereo partly drawn) [Compound CCLXXXIX]	100 to 300	100 to 300	< 100
CCCCCCCC(=O)N[C@H](CN[C@@H](C)C(=O)OC)CC(N)=O [Compound CCLXXXI]	> 300	> 300	100 to 300
CCCCCCCC(=O)N[C@H](CC(=O)NOC)C(=O)NCCc1ccc(O)cc1 [Compound CCLXXXV]	100 to 300	100 to 300	< 100
CCCCCCCC(=O)N[C@@H](CN[C@@H](C)C(=O)OC)CC(N)=O [Compound CCLXXX]	> 300	> 300	100 to 300
NC(=O)C[C@@H](NC(=O)CCCC1CCCCC1)C(=O)NCCc1ccccc1 [Compound CCLXX]	< 100	< 100	< 100
NC(=O)C[C@@H](NC(=O)/C=C/CC1CCCC1)C(=O)NCCc1ccc(O)cc1 [Compound CCLX]	< 100	< 100	< 100
NC(=O)C[C@@H](NC(=O)CCC1CCCC1)C(=O)NCCc1ccccc1 [Compound CCL]	< 100	< 100	< 100

Compound	IC50 (ClbP [1]) [µM]	IC50 (ClbP [2]) [µM]	IC50 (Full-length WT ClbP) [µM]
CCCCCCCC(=O)N[C@H](CC(N)=O)C(=O)NCCc1ccncc1 [Compound CCVIII]	< 100	< 100	< 100
CCCCCCCC(=O)N[C@H](CC(N)=O)c1nc2ccccc2[nH]1 [Compound CCVII]	> 300	> 300	< 100
CCCCCCCC(=O)N[C@H](CC(N)=O)C(=O)NCCc1ccsc1 [Compound CCVI]	< 100	< 100	< 100
CCCCCCCC(=O)N[C@H](CC(N)=O)C(=O)NCCc1ccccn1 [Compound CCV]	< 100	< 100	< 100
CCCCCCCC(=O)N[C@H](CC(=O)NO)C(=O)NCCc1ccc(O)c(O)c1 [Compound CCXCIII]	< 100	< 100	< 100
NC(=O)C[C@@H](NC(=O)CCCCC(F)(F)F)C(=O)NCCc1ccc(O)cc1 [Compound CCXCII]	< 100	< 100	< 100
O=C(/C=C/C1CCCCC1)N[C@H](CC(=O)NO)C(=O)NCCc1ccc(O)cc1 [Compound CCXCIV]	< 100	< 100	< 100
O=C(C[C@@H](NC(=O)CCCC1CCCC1)C(=O)NCCc1ccc(O)cc1)NO [Compound CCXCIX]	< 100	< 100	< 100
CN(CCCCCC(=O)N[C@H](CC(N)=O)C(=O)NCCc1ccc(O)cc1)Cc1ccccc1 [Compound CCXCI]	< 100	< 100	< 100
O=C(/C=C/CC1CCCC1)N[C@H](CC(=O)NO)C(=O)NCCc1ccc(O)cc1 [Compound CCXCVIII]	< 100	< 100	< 100
O=C(/C=C/CC1CCCCC1)N[C@H](CC(=O)NO)C(=O)NCCc1ccc(O)cc1 [Compound CCXCVII]	< 100	< 100	< 100
O=C(C[C@@H](NC(=O)CCCC1CCCCC1)C(=O)NCCc1ccc(O)cc1)NO [Compound CCXCVI]	< 100	< 100	< 100
O=C(C[C@@H](NC(=O)CCC1CCCCC1)C(=O)NCCc1ccc(O)cc1)NO [Compound CCXCV]	< 100	< 100	< 100
CCCCCCCC(=O)N[C@@H]1CC(=O)NC1(O)C(=O)NCCCC (stereo partly drawn) [Compound CCXC]	< 100	< 100	< 100
CCCCCCCC(=O)N[C@H](CC(N)=O)C(=O)NCCCc1ccccc1 [Compound CCXIII]	< 100	< 100	< 100
CCCCCCC(C)(C)C(=O)N[C@@H](CNCCc1ccccc1)CC(N)=O [Compound CCXII]	> 300	> 300	100 to 300
CCCCCCCC(N[C@H](CC(N)=O)C(=O)NCCc1ccccc1)C(F)(F)F (stereo partly drawn) [Compound CCXIV]	> 300	> 300	< 100

From patent publication US20230234917A1, “ASPARAGINE DERIVATIVES AND METHODS OF USING SAME” (priority 2020, published 2023)
